Experimental data taken from paper PMC9699003, “Arene Variation of Highly Cytotoxic Tridentate Naphthoquinone-Based Ruthenium(II) Complexes and In-Depth In Vitro Studies” (Pharmaceutics, 2022).

How the values were obtained:
[1] = test system: CH1/PA-1 ovarian teratocarcinoma cells; assay: MTT assay (cytotoxicity); format: cell-based, human; details: CH1/PA-1, MTT
Experimental: (§1) CH1/PA-1 ovarian teratocarcinoma cells (provided by L. R. Kelland, CRC Centre for Cancer Therapeutics, Institute of Cancer Research, Sutton, UK; confirmed by STR profiling as PA-1 ovarian teratocarcinoma cells at Multiplexion, Heidelberg, Germany), SW480 colon carcinoma and A549 non-small cell lung cancer cells (both obtained from the American Type Culture Collection, Manassas, VA, USA) were grown as adherent cultures in 75 cm² culture flasks (CytoOne, Starlab, Hamburg, Germany) by using minimal essential medium (MEM) supplemented with 1 mM sodium pyruvate, 4 mM L-glutamine, 1% (v/v) nonessential amino acids from 100-fold stock (all purchased from Sigma-Aldrich) and 10% heat-inactivated fetal bovine serum (BioWest, Nuaillé, France). Cells were maintained under standard culture conditions with 5% CO2 at 37 °C in a humidified atmosphere.
(§2) The 3-(4,5-dimethylthiazol-2-yl)-2,5-diphenyl-2H-tetrazolium bromide (MTT, Acros Organics, Geel, Belgium) assay was used to detect the cytotoxicity of the compounds after 24 h and 96 h incubation. In brief, cells were harvested from culture flasks and the following cell numbers (each in 100 µL) were seeded into 96-well culture plates (CytoOne, tissue culture treated, Starlab, Hamburg, Germany) for 24 h incubation: 1 × 10^4 (CH1/PA-1), 1 × 10^4 (SW480) and 1.5 × 10^4 (A549) cells per well; and for 96 h incubation: 1 × 10^3 (CH1/PA-1), 2 × 10^3 (SW480) and 3 × 10^3 (A549) cells per well. After 24 h, cells resuming their exponential growth rate were treated with test compounds at nine concentrations obtained by serial two-fold dilution. Stock solutions were prepared in DMSO (20 mM or 40 mM) and diluted in supplemented MEM. An amount of 100 µL of each concentration was added to the plates in triplicates and cells were exposed for 24 or 96 h. Afterward, the medium was replaced with 100 µL of MTT solution (5 mg/mL) in phosphate-buffered saline (PBS, Sigma-Aldrich), diluted 1:7 in RPMI 1640 medium (supplemented with 4 mM L-glutamine and 10% heat-inactivated FBS). Upon cell-viability-dependent conversion of the yellow, water-soluble tetrazolium salt into purple formazan products for 4 h, the crystals were dissolved in 150 µL DMSO. The absorbance of the resulting solutions, which is directly proportional to the number of viable cells, was measured at 550 nm (and at 690 nm as a reference) with a microplate reader (ELx808, BioTek, Winoosky, VT, USA) and Gen5TM 3.08 software (BioTek). Blank-corrected optical densities were subjected to graphical evaluation and interpolation of IC50 values. At least three biologically and technically independent experiments were performed.

[2] = test system: SW480 colon carcinoma cells; assay: MTT assay (cytotoxicity); format: cell-based, human
Experimental: as §1, §2

[3] = test system: A549 non-small cell lung cancer cells; assay: MTT assay (cytotoxicity); format: cell-based, human
Experimental: as §1, §2

SW480 cells [4] = assay: Colony formation assay; format: cell-based, human; details: SW480, 11 days, relative to untreated control
Experimental: For the colony formation assay, SW480 cells were seeded at a density of 350 cells/2 mL into each well of 6-well plates (CytoOne, tissue culture treated) and left to adhere for 24 h. To determine the long-term effects of the test compounds, the cells were exposed to them for 11 days at 37 °C and 5% CO2. After incubation, the wells were gently washed with 1 mL cold PBS and the colonies were fixed with 1 mL cold (4 °C) 100% methanol (Thermo Fisher, Waltham, MA, USA) for 30 min at 4 °C and washed with 1 mL PBS again. The fixed colonies were stained with 1 mL of 0.5% w/v crystal violet (Sigma-Aldrich) in methanol for 2 min and the plates were washed under tap water. After drying the plates, images of the wells were captured, and colonies were counted with the colony counting function of Fusion Fx7 software (Vilber Lourmat, Collégien, France). Results were normalized to untreated controls. Data are averaged from at least three independent experiments.

SW480 cells [5] = assay: Cellular ruthenium accumulation (ICP-MS); format: cell-based, human; details: SW480, 2 h incubation, 37 °C
Experimental: SW480 cells were seeded at densities of 1.8 × 10^5 cells/well in 12-well plates (CytoOne, tissue culture treated) in 1 mL of supplemented MEM per well. (As CH1/PA-1 cells tend to detach during the required washing steps, cellular accumulation studies were performed only in SW480 cells). After 24 h, compounds dissolved in DMSO and diluted in MEM were added to the cells to final concentrations of 2 µM and 5 µM, and cells were incubated at 37 °C for 2 h. During incubation, the cell number was determined from three control wells of a plate seeded in parallel to the treatment plates. After the 2 h incubation, the medium was removed and all wells were washed with 3 × 1 mL PBS, and cells were lysed by adding 400 µL HNO3 per well for 1 h at room temperature. An amount of 300 µL of each lysate was added to 7.7 mL MilliQ water to get a total volume of 8 mL, and determination of the ruthenium content was carried out by ICP-MS. The measured amount of accumulated metal was normalized to the cell number and results were given in fg [Ru]/cell from at least three independent experiments. An Agilent 7800 ICP-MS instrument (Agilent Technologies, Tokyo, Japan) equipped with an Agilent SPS 4 autosampler (Agilent Technologies, Tokyo, Japan) was used to determine the ruthenium content. The ICP-MS parameters were tuned on a daily base to achieve high sensitivity. The ICP-MS was equipped with a MicroMist nebulizer with a sample uptake rate of ∼0.2 mL/min and standard nickel cones. The Agilent MassHunter software package (Workstation Software, Version C.01.04, 2018) was used for data evaluation. The instrumental parameters can be found in the supplementary information (Table S9).

SW480 cells [6] = assay: Apoptosis assay (annexin V-FITC/PI, flow cytometry); details: SW480, 24 h; for early apoptotic cells / late apoptotic cells / necrotic cells / viable cells: mean ± SD; for Apoptosis / necrosis induction (in words): concentrations covering the IC50 range
Experimental: Cell death induction was quantitatively analyzed via flow cytometry using double staining with FITC-conjugated annexin V (eBioscience, San Diego, CA, USA) and propidium iodide (PI, 1.0 mg/mL, Sigma-Aldrich). SW480 cells were seeded into 24-well plates (7 × 10^4 cells/well) in 600 µL MEM per well and allowed to settle for 24 h. Afterward, cells were exposed to two or three different concentrations (0.1–100 µM) of the compounds (based on their cytotoxic activity) for 24 h. After treatment, the medium was collected, and cells were washed once with 37 °C warm PBS and harvested. Following trypsinization, the cell suspension was added to the pre-collected medium and cells were centrifuged (300 g, 3 min). The supernatant was removed, and the cell pellet was resuspended with 1.5 µL FITC-conjugated annexin V in 150 µL binding buffer (10 mM HEPES/NaOH pH 7.4, 140 mM NaCl and 2.5 mM CaCl2) and incubated at 37 °C for 15 min. An amount of 1 µL of propidium iodide (PI, Thermo Fisher) was added shortly before flow-cytometric analysis using a Guava easyCyte 8HT instrument (Merck Millipore, Burlington, MA, USA) with InCyte software. Results were quantified by using the FlowJo software (TreeStar). At least three independent experiments were conducted.

[7] = Homo sapiens, read-out: viable cells

| SMILES | IC50 ([1]; 24 h exposure) | IC50 ([2]; 24 h exposure) | IC50 ([3]; 24 h exposure) | Ru [102]/cell (cellular accumulation) (SW480 cells [5]; 2 µM) | Ru [102]/cell (cellular accumulation) (SW480 cells [5]; 5 µM) | early apoptotic cells (SW480 cells [6]; 0.1 µM) | late apoptotic cells (SW480 cells [6]; 0.1 µM) | necrotic cells (SW480 cells [6]; 0.1 µM) | viable cells (SW480 cells [6]; 0.1 µM) | early apoptotic cells (SW480 cells [6]; 1 µM) | late apoptotic cells (SW480 cells [6]; 1 µM) | necrotic cells (SW480 cells [6]; 1 µM) | viable cells (SW480 cells [6]; 1 µM) | early apoptotic cells (SW480 cells [6]; 10 µM) | late apoptotic cells (SW480 cells [6]; 10 µM) | necrotic cells (SW480 cells [6]; 10 µM) | viable cells (SW480 cells [6]; 10 µM) | IC50 ([1]; 96 h exposure) | IC50 ([2]; 96 h exposure) | IC50 ([3]; 96 h exposure) | also measured |
| --- | --- | --- | --- | --- | --- | --- | --- | --- | --- | --- | --- | --- | --- | --- | --- | --- | --- | --- | --- | --- | --- |
| CC1=C([O-])C([O-])(n2cccn2)c2ccccc2C1=O.Cc1ccc(C(C)C)cc1.[Ru+2] (racemic) [Compound 1] | 59 ± 18 µM | 0.46 ± 0.14 µM | 3.8 ± 2.6 µM | 97 ± 8 fg | 299 ± 54 fg | 3.7 ± 3.1% | 3.6 ± 2.6% | 0.77 ± 0.33% | 92 ± 6% | 1.3 ± 0.5% | 4.9 ± 2.8% | 1.2 ± 0.8% | 93 ± 4% | 16 ± 1% | 64 ± 6% | 6.7 ± 3.1% | 13 ± 3% | – | – | – | Number of colonies (SW480 cells [4]; 0.039 µM): 18 ± 5%; Number of colonies (SW480 cells [4]; 0.078 µM): 3.1 ± 0.8%; Number of colonies (SW480 cells [4]; 0.16 µM): 0.26 ± 0.43%; Apoptosis / necrosis induction (in words) (SW480 cells [6]): induced apoptosis to a high extent |
| CC1=C([O-])C([O-])(n2cccn2)c2ccccc2C1=O.[Ru+2].c1ccccc1 (racemic) [Compound 2] | 170 ± 23 µM | 31 ± 3 µM | > 200 µM | 4.5 ± 0.3 fg | 11 ± 2 fg | – | – | – | – | 1.1 ± 0.4% | 2.0 ± 0.2% | 1.4 ± 0.8% | 95 ± 1% | 1.0 ± 0.3% | 2.0 ± 0.3% | 1.5 ± 0.8% | 96 ± 1% | 157 ± 8 µM | 9.9 ± 2.5 µM | 141 ± 38 µM | Number of colonies (SW480 cells [4]; 5 µM): 48 ± 9%; Number of colonies (SW480 cells [4]; 10 µM): 20 ± 4%; Number of colonies (SW480 cells [4]; 20 µM): 3.5 ± 1.5% |
| CC1=C([O-])C([O-])(n2cccn2)c2ccccc2C1=O.Cc1ccccc1.[Ru+2] (racemic) [Compound 3] | 121 ± 18 µM | 11 ± 2 µM | > 200 µM | 15 ± 2 fg | 33 ± 10 fg | – | – | – | – | 1.0 ± 0.7% | 2.1 ± 0.3% | 1.0 ± 0.5% | 96 ± 1% | 0.7 ± 0.3% | 2.1 ± 0.7% | 0.72 ± 0.49% | 97 ± 1% | 138 ± 10 µM | 2.8 ± 0.7 µM | 72 ± 12 µM | Number of colonies (SW480 cells [4]; 1.25 µM): 53 ± 8%; Number of colonies (SW480 cells [4]; 2.5 µM): 23 ± 8%; Number of colonies (SW480 cells [4]; 5 µM): 4.3 ± 3.7% |
| CC1=C([O-])C([O-])(n2cccn2)c2ccccc2C1=O.[Ru+2].c1ccc2c(c1)CCC2 (racemic) [Compound 4] | 146 ± 18 µM | 3.5 ± 1.6 µM | 119 ± 21 µM | 44 ± 3 fg | 100 ± 15 fg | 1.1 ± 0.5% | 2.1 ± 0.4% | 1.7 ± 1.1% | 95 ± 2% | 1.1 ± 0.7% | 2.4 ± 1.2% | 0.93 ± 0.65% | 96 ± 2% | 1.0 ± 0.4% | 8.3 ± 4.9% | 3.4 ± 4.0% | 87 ± 8% | 88 ± 10 µM | 0.52 ± 0.09 µM | 9.1 ± 1.5 µM | Number of colonies (SW480 cells [4]; 0.31 µM): 22 ± 5%; Number of colonies (SW480 cells [4]; 0.63 µM): 5.1 ± 2.1%; Number of colonies (SW480 cells [4]; 1.25 µM): 0.82 ± 0.85% |
| CC1=C([O-])C([O-])(n2cccn2)c2ccccc2C1=O.[Ru+2].c1ccc(-c2ccccc2)cc1 (racemic) [Compound 5] | 42 ± 4 µM | 0.77 ± 0.24 µM | 4.3 ± 1.6 µM | 107 ± 14 fg | 336 ± 10 fg | 3.0 ± 2.2% | 2.9 ± 1.5% | 1.0 ± 0.5% | 93 ± 4% | 1.0 ± 0.5% | 3.3 ± 1.3% | 0.85 ± 0.48% | 95 ± 2% | 25 ± 7% | 40 ± 6% | 6.3 ± 2.2% | 29 ± 11% | 30 ± 3 µM | 0.072 ± 0.019 µM | 1.2 ± 0.2 µM | Number of colonies (SW480 cells [4]; 0.039 µM): 19 ± 7%; Number of colonies (SW480 cells [4]; 0.078 µM): 4.0 ± 2.0%; Number of colonies (SW480 cells [4]; 0.16 µM): 0.22 ± 0.48%; Apoptosis / necrosis induction (in words) (SW480 cells [6]): induced apoptosis to a high extent |
| CC1=C(O)C(=O)c2ccccc2C1=O [L, 2-Hydroxy-3-methyl-1,4-naphthoquinone] | – | – | – | – | – | – | – | – | – | – | – | – | – | 1.0 ± 0.5% | 1.6 ± 0.2% | 0.61 ± 0.44% | – | – | – | – | IC50 ([1]; Homo sapiens, 24 h exposure): > 400 µM; IC50 ([2]; Homo sapiens, 24 h exposure): > 400 µM; IC50 ([3]; Homo sapiens, 24 h exposure): > 400 µM; Number of colonies (SW480 cells [4]; 50 µM): 62 ± 25%; Number of colonies (SW480 cells [4]; 150 µM): 0 ± 0%; viability at 10 µM (SW480 cells [6]; [7]): 97 ± 1%; viability at 100 µM (SW480 cells [6]; [7]): 96%; early apoptotic cells (SW480 cells [6]; 100 µM): 1.0 ± 0.2%; late apoptotic cells (SW480 cells [6]; 100 µM): 1.9 ± 0.2%; necrotic cells (SW480 cells [6]; 100 µM): 0.86 ± 0.33%; Apoptosis / necrosis induction (in words) (SW480 cells [6]): did not induce any of these processes |
